The values that follow come from PubChem BioAssay (NCI).

Molecules are shown by their SMILES.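 Interpolation was linear, between the two tested concentrations surrounding the appropriate level; five concentrations were tested over 48 hours in 96-well plates. The concentration for 50% growth inhibition is given as GI50. TGI: total growth inhibition.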

Holding throughout (assay): DTP human tumour cell line panel, 48 h
The test system of assay [1] is HCC-2998 colon.
The test system of assay [2] is M14 melanoma.
For assay [3], the system named is SNB-19 CNS.
Assay [4] has as its system RXF 393 renal.
Assay [5] relates to HCT-15 colon.
Assay [6] concerns OVCAR-5 ovarian.
Assay [7] relates to SF-268 CNS.
Assay [8] deals with UACC-257 melanoma.
Assay [9] has as its system KM20L2 colon.
The test system of assay [10] is DLD-1 colon.

`CC[C@]12CCCN3CC[C@]4(C(=C(C(=O)OC)C1)Nc1ccccc14)[C@@H]32`: the GI50 (commonly the concentration that inhibits growth by half) in assay [1] is 14.6 µM; in assay [2] it was 20.5 µM; in assay [3] it was 22.9 µM; in [4], 15.5 µM; in [5] it was 13.7 µM; in assay [6], 15.9 µM. Moreover, the values for the GI50 in assay [7] and in assay [8] were 18 µM and 16.7 µM, respectively. The total growth inhibition concentration (TGI) (as a rule, the concentration giving total growth inhibition) in [1] was found to be 29 µM; in assay [2] it was 51.7 µM; in assay [3], 66.2 µM; in assay [4], 30.4 µM; in [5], 28.5 µM; in assay [6], 34.1 µM. Further, the total growth inhibition concentration (TGI) was determined as 37.8 µM in assay [7] and 42.2 µM in assay [8].
For `COC(=O)C(Cc1nc2ccccc2[nH]c1=O)C(=O)C(=O)Nc1ccc(OC)cc1[N+](=O)[O-]` (stereo not drawn), the TGI in assay [1], in [2], in [3], in assay [5], in assay [6] and in assay [7] was more than 100 µM in each case. Further, the total growth inhibition concentration (TGI) in assay [8] and in [9] was more than 100 µM each time.
`CSc1nc2c(c(=O)[nH]1)C(c1ccc(Cl)cc1)C1=C(N2)/C(=C/c2ccc(Cl)cc2)CNC1` (stereo not drawn): the GI50 in assay [1] was 1.96 µM; in [2] it was 2.23 µM; in [3], 2.31 µM; in assay [4] it was 1.65 µM; in [5], 2.04 µM; in [6] it was 2.53 µM. Also, the GI50 in [7] was 2.76 µM; in [8], 2.63 µM. Besides, the TGI in assay [1] is 3.57 µM; in [2], 6.18 µM; in assay [3] it was 8.29 µM; in assay [4] it was 3.42 µM; in assay [5] it was 5.54 µM; in assay [6], 6.25 µM. Besides, the total growth inhibition concentration (TGI) in assay [8] worked out at 9.4 µM.
With `C=C1C(=O)OC2/C=C(\C)C3OC3/C=C(/C(=O)OC)C(OC(C)=O)C(OC(=O)C(C)(O)C(C)OC(C)=O)C12` (stereo not drawn), the concentration for total growth inhibition (TGI) was 14.4 µM in [1]; 7.52 µM in [10]; 8.05 µM in [2]; 29.1 µM in [3]; 1.35 µM in assay [4]; more than 34.1 µM in assay [5]. The figures for the concentration for total growth inhibition (TGI) in [6], in assay [7] and in [8] were 10.7 µM, 34.1 µM and 2.34 µM, respectively.
On to `COc1cc(C2C(C#N)=C(N)Oc3cc(O)ccc32)cc(OC)c1OC` (stereo not drawn), for which the GI50 in [1] was 0.964 µM; in assay [2] it was 0.409 µM; in assay [4], 0.362 µM; in [5], 0.539 µM; in assay [6], 2.36 µM; in assay [7], 14.5 µM. For the same compound, the GI50 in assay [8] is 0.401 µM. Besides, the TGI in [1] was more than 54.8 µM; in assay [2] it was more than 100 µM; in assay [3], more than 100 µM; in assay [4], 1.99 µM; in [5], more than 100 µM; in assay [6] it was more than 100 µM. Further, the TGI in [7] and in assay [8] was more than 100 µM each time.
For `COc1cc(NC(N)=NCCC(C)(C)c2ccc(C(F)(F)F)cc2)ncc1C#N`, the GI50 in assay [1] is 1.89 µM; in assay [2] it was 1.7 µM; in assay [3] it was 1.79 µM; in assay [4], 1.79 µM; in [5], 1.53 µM; in [6] it was 1.97 µM. Further, the GI50 in assay [7] is 1.97 µM; in assay [8] it was 1.77 µM. Moreover, the total growth inhibition concentration (TGI) turned out to be 3.34 µM in assay [1]; 3.24 µM in [2]; 3.44 µM in [3]; 3.24 µM in [4]; 2.9 µM in [5]; 3.76 µM in assay [6]. For the same compound, the concentration for total growth inhibition (TGI) in assay [7] was determined as 4.27 µM; in [8], 3.32 µM.
On to `C/C(=N\NC(=O)c1ccncc1)c1ccc(O)cc1O`, for which the GI50 is 3.59 µM in [1]; 6.44 µM in [2]; 5.29 µM in assay [3]; 12.2 µM in [4]; 4.83 µM in [5]; 27 µM in assay [6]. Besides, the GI50 in assay [7] is 2.19 µM; in assay [8], 4.06 µM. The concentration for total growth inhibition (TGI) in [1], in [2], in assay [3], in assay [4], in assay [5] and in assay [6] was more than 100 µM throughout. In addition, the values for the concentration for total growth inhibition (TGI) in assay [7] and in assay [8] were more than 100 µM and 88.5 µM, respectively.
With `COc1cc2c3c(n(CCCCl)c(=O)c2cc1OC)-c1ccc(C#N)cc1C3=O`, the GI50 in [1] is 4.49 µM; in assay [2], 9.24 µM; in assay [3], 22.1 µM; in [4], 3.85 µM; in assay [5] it was 3.31 µM; in assay [6], 33.6 µM. The GI50 was 19.5 µM in assay [7] and 54.9 µM in assay [8]. In addition, the TGI in assay [1] was 25.9 µM; in assay [2], more than 100 µM; in assay [3] it was more than 100 µM; in assay [4], 18.1 µM; in assay [5] it was 20.5 µM; in assay [6], more than 100 µM. In addition, the TGI in assay [7] and in assay [8] was more than 100 µM in each case.
For the compound `COc1ccc(CNc2nc(NCc3ccc(OC)cc3)c3n[nH]c(C(C)C)c3n2)cc1`, the GI50 in [1] is 2.43 µM; in [2], 2.28 µM; in assay [3] it was 4.46 µM; in [4] it was 18.6 µM; in assay [5] it was 5.09 µM; in assay [6], 8.65 µM. For the same compound, the GI50 in assay [7] is 5.58 µM; in [8], 16.4 µM. For the same compound, the concentration for total growth inhibition (TGI) in assay [1] is 5.99 µM; in [2], 5 µM; in assay [3], 23.1 µM; in assay [4], more than 100 µM; in assay [5], 28.8 µM; in assay [6] it was 56.6 µM. Moreover, the TGI came out at 26.3 µM in assay [7] and 30.8 µM in assay [8].
Regarding `O=C(CN1CCN(c2ccc(Cl)cc2)CC1)N1CCN(c2nnc(-c3ccccc3)c(-c3ccccc3)n2)CC1`, the GI50 in assay [1] was 9.29 µM; in [2], more than 100 µM; in [3] it was more than 100 µM; in [4], 15 µM; in [5] it was 5.12 µM; in [6], more than 100 µM. Also, the GI50 was more than 100 µM in [7] and 26.6 µM in assay [8]. Also, the TGI in assay [1], in assay [2], in [3], in [4], in assay [5] and in [6] was more than 100 µM throughout. Also, the TGI in assay [7] and in [8] was more than 100 µM in each case.
